Assay: xn = mol fraction of the nth substance listed

COCCOCCOCCO + CC1COC(=O)O1
298.15 K, 101.33 kPa
Settings	viscosity [mPa·s]
x1 = 0.0048	2.514
x1 = 0.015	2.563
x1 = 0.0231	2.601
x1 = 0.0338	2.645
x1 = 0.0436	2.701
x1 = 0.0626	2.807
x1 = 0.0855	2.896
x1 = 0.1268	3.064
x1 = 0.1715	3.253
x1 = 0.2173	3.462
x1 = 0.2578	3.648
x1 = 0.2932	3.814
x1 = 0.3343	4.013
x1 = 0.3636	4.167
x1 = 0.406	4.368
x1 = 0.445	4.559
x1 = 0.4717	4.699
x1 = 0.5024	4.844
x1 = 0.5261	4.965
x1 = 0.5629	5.143
x1 = 0.6084	5.347
x1 = 0.6548	5.581
x1 = 0.6969	5.687
x1 = 0.7326	5.831
x1 = 0.7667	5.978
x1 = 0.8023	6.05
x1 = 0.8213	6.09
x1 = 0.84	6.121
x1 = 0.8547	6.173
x1 = 0.88	6.194
x1 = 0.8997	6.201
x1 = 0.9173	6.208

CC(C)(C)O + OCC(O)CO
viscosity [mPa·s], 101.33 kPa
Settings	x2 = 0.1029	x2 = 0.1996	x2 = 0.3009	x2 = 0.4015	x2 = 0.5001	x2 = 0.5995	x2 = 0.6993	x2 = 0.7992	x2 = 0.8995
308.15 K	5.962	10.24	19.34	36.09	65.66	105.9	154.9	211.7	276
318.15 K	4.1	6.761	12.32	21.85	37.6	58.03	83.42	108.5	132.4

CCCCCCCCNCCCCCCCC + C1CCCCC1
303.15 K, 101 kPa
Settings	viscosity [mPa·s]
x2 = 0.1052	3.382
x2 = 0.2021	3.137
x2 = 0.3028	2.95
x2 = 0.4044	2.591
x2 = 0.5039	2.306
x2 = 0.6016	1.976
x2 = 0.7009	1.653
x2 = 0.8006	1.364
x2 = 0.9216	1.055

CCNCC + CCCCOCCO
viscosity [mPa·s], 100 kPa
Settings	298.15 K	303.15 K	308.15 K
x2 = 0.0499	0.35	0.335	0.31
x2 = 0.1001	0.417	0.391	0.368
x2 = 0.1508	0.485	0.45	0.423
x2 = 0.2001	0.561	0.523	0.492
x2 = 0.2997	0.758	0.693	0.647
x2 = 0.3995	1.028	0.933	0.865
x2 = 0.5	1.356	1.212	1.116
x2 = 0.5999	1.72	1.516	1.389
x2 = 0.7	2.083	1.832	1.673
x2 = 0.7999	2.407	2.101	1.913
x2 = 0.8997	2.662	2.319	2.1
x2 = 0.9495	2.769	2.415	2.181

CN(CCO)CCO + CCO
313 K, 101.33 kPa
Settings	viscosity [mPa·s]
x1 = 0.0079	0.832
x1 = 0.02	0.888
x1 = 0.0434	0.998
x1 = 0.216	2.132
x1 = 0.2986	2.967
x1 = 0.3977	4.196
x1 = 0.5237	7.05
x1 = 0.5978	9.003
x1 = 0.7028	12.92
x1 = 0.8085	17.79
x1 = 0.908	23.88

COCCOCCOCCO + ClC(Cl)=C(Cl)Cl
298.15 K, 101.33 kPa
Settings	viscosity [mPa·s]
x1 = 0.0078	0.862
x1 = 0.016	0.883
x1 = 0.0295	0.915
x1 = 0.047	0.956
x1 = 0.0598	0.989
x1 = 0.0696	1.016
x1 = 0.0802	1.046
x1 = 0.0924	1.081
x1 = 0.1201	1.162
x1 = 0.1568	1.28
x1 = 0.2009	1.432
x1 = 0.2413	1.592
x1 = 0.2894	1.795
x1 = 0.3457	2.047
x1 = 0.3797	2.209
x1 = 0.4041	2.334
x1 = 0.462	2.64
x1 = 0.4933	2.812
x1 = 0.5379	3.072
x1 = 0.5783	3.326
x1 = 0.6154	3.56
x1 = 0.6587	3.856
x1 = 0.7026	4.163
x1 = 0.7393	4.431
x1 = 0.787	4.797
x1 = 0.8264	5.117
x1 = 0.886	5.597
x1 = 0.9108	5.82
x1 = 0.9403	6.053
x1 = 0.9649	6.276
x2 = 0.0193	6.411

CCC(O)CO (stereo unspecified) + CN1CCCC1=O
Settings	viscosity [mPa·s]
298.15 K, 101.33 kPa, x2 = 0.0654	38.07
298.15 K, 101.33 kPa, x2 = 0.1029	31.55
298.15 K, 101.33 kPa, x2 = 0.2083	19.25
298.15 K, 101.33 kPa, x2 = 0.3075	12.65
298.15 K, 101.33 kPa, x2 = 0.3987	8.95
298.15 K, 101.33 kPa, x2 = 0.4992	6.384
298.15 K, 101.33 kPa, x2 = 0.5997	4.714
298.15 K, 101.33 kPa, x2 = 0.6958	3.61
298.15 K, 101.33 kPa, x2 = 0.8118	2.663
298.15 K, 101.33 kPa, x2 = 0.9111	2.083
298.15 K, 101.33 kPa, x2 = 0.9632	1.837
308.15 K, 101 kPa, x1 = 0.0282	1.835
308.15 K, 101 kPa, x1 = 0.0564	2.019
308.15 K, 101 kPa, x1 = 0.1026	2.039
308.15 K, 101 kPa, x1 = 0.1884	2.067
308.15 K, 101 kPa, x1 = 0.3027	3.253
308.15 K, 101 kPa, x1 = 0.4056	3.955
308.15 K, 101 kPa, x1 = 0.4941	4.933
308.15 K, 101 kPa, x1 = 0.6024	6.647
308.15 K, 101 kPa, x1 = 0.6843	8.612
308.15 K, 101 kPa, x1 = 0.7939	12.61
308.15 K, 101 kPa, x1 = 0.888	17.95
308.15 K, 101 kPa, x1 = 0.9396	22.95
308.15 K, 101 kPa, x1 = 0.9764	27.1
308.15 K, 101.33 kPa, x2 = 0.05493	22.04
308.15 K, 101.33 kPa, x2 = 0.1102	17.39
308.15 K, 101.33 kPa, x2 = 0.1762	13.32
308.15 K, 101.33 kPa, x2 = 0.2999	8.57
308.15 K, 101.33 kPa, x2 = 0.3972	6.231
308.15 K, 101.33 kPa, x2 = 0.4977	4.671
308.15 K, 101.33 kPa, x2 = 0.6026	3.551
308.15 K, 101.33 kPa, x2 = 0.6974	2.829
308.15 K, 101.33 kPa, x2 = 0.8019	2.225
308.15 K, 101.33 kPa, x2 = 0.9106	1.745
308.15 K, 101.33 kPa, x2 = 0.9521	1.595
318.15 K, 101.33 kPa, x2 = 0.05598	13.51
318.15 K, 101.33 kPa, x2 = 0.1062	11.16
318.15 K, 101.33 kPa, x2 = 0.2044	7.948
318.15 K, 101.33 kPa, x2 = 0.2997	5.996
318.15 K, 101.33 kPa, x2 = 0.4011	4.469
318.15 K, 101.33 kPa, x2 = 0.4992	3.505
318.15 K, 101.33 kPa, x2 = 0.6003	2.789
318.15 K, 101.33 kPa, x2 = 0.702	2.252
318.15 K, 101.33 kPa, x2 = 0.8041	1.83
318.15 K, 101.33 kPa, x2 = 0.9081	1.49
318.15 K, 101.33 kPa, x2 = 0.951	1.373

COCCOCCOCCOC + CCCCCCCO
101 kPa
Settings	viscosity [mPa·s]
293.15 K, x1 = 0.05281	5.682
293.15 K, x1 = 0.09018	5.069
293.15 K, x1 = 0.2084	3.662
293.15 K, x1 = 0.2924	3.185
293.15 K, x1 = 0.4036	2.821
293.15 K, x1 = 0.5165	2.541
293.15 K, x1 = 0.5861	2.393
293.15 K, x1 = 0.6984	2.25
293.15 K, x1 = 0.8022	2.21
293.15 K, x1 = 0.8977	2.195
293.15 K, x1 = 0.9591	2.185
303.15 K, x1 = 0.05495	4.164
303.15 K, x1 = 0.08973	3.734
303.15 K, x1 = 0.2069	2.83
303.15 K, x1 = 0.2951	2.469
303.15 K, x1 = 0.403	2.197
303.15 K, x1 = 0.504	2.013
303.15 K, x1 = 0.5851	1.916
303.15 K, x1 = 0.705	1.813
303.15 K, x1 = 0.7893	1.785
303.15 K, x1 = 0.9012	1.776
303.15 K, x1 = 0.9516	1.777
313.15 K, x1 = 0.0542	3.158
313.15 K, x1 = 0.09194	2.876
313.15 K, x1 = 0.2077	2.266
313.15 K, x1 = 0.2951	2
313.15 K, x1 = 0.4053	1.782
313.15 K, x1 = 0.5078	1.654
313.15 K, x1 = 0.59	1.579
313.15 K, x1 = 0.7035	1.515
313.15 K, x1 = 0.795	1.483
313.15 K, x1 = 0.9054	1.474
313.15 K, x1 = 0.9487	1.471

From the CheMixHub viscosity set
